{
  "source": "ChEMBL document CHEMBL3046620",
  "about": "“Resistance monitoring to deltamethrin and chlorpyriphos-ethyl in 13 populations of Typhlodromus pyri Scheuten (Acari: Phytoseiidae) from vineyards in the southwest of France” (2008)",
  "assay_type_in_all_cases": "functional",
  "key": {"Typhlodromus pyri [1]": {"system": "Typhlodromus pyri", "assay": "Miticidal activity against compound treated Phaseolus vulgaris leaf-fed female Typhlodromus pyri Scheuten 3 assessed as mortality at 855 mg/l sprayed on leaf disks measured after 3 days", "conditions": "Scheuten 3, foliar, 72 h"}, "Typhlodromus pyri [2]": {"system": "Typhlodromus pyri", "assay": "Miticidal activity against compound treated Phaseolus vulgaris leaf-fed female Typhlodromus pyri Scheuten 12 assessed as mortality at 855 mg/l sprayed on leaf disks measured after 3 days", "conditions": "Scheuten 12, foliar, 72 h"}, "Typhlodromus pyri [3]": {"system": "Typhlodromus pyri", "assay": "Miticidal activity against compound treated Phaseolus vulgaris leaf-fed female Typhlodromus pyri Scheuten 1 assessed as mortality at 855 mg/l sprayed on leaf disks measured after 3 days", "conditions": "Scheuten 1, foliar, 72 h"}, "Typhlodromus pyri [4]": {"system": "Typhlodromus pyri", "assay": "Miticidal activity against compound treated Phaseolus vulgaris leaf-fed female Typhlodromus pyri Scheuten 8 assessed as mortality at 855 mg/l sprayed on leaf disks measured after 3 days", "conditions": "Scheuten 8, foliar, 72 h"}, "Typhlodromus pyri [5]": {"system": "Typhlodromus pyri", "assay": "Miticidal activity against compound treated Phaseolus vulgaris leaf-fed female Typhlodromus pyri Scheuten 9 assessed as mortality at 855 mg/l sprayed on leaf disks measured after 3 days", "conditions": "Scheuten 9, foliar, 72 h"}, "Typhlodromus pyri [6]": {"system": "Typhlodromus pyri", "assay": "Miticidal activity against compound treated Phaseolus vulgaris leaf-fed female Typhlodromus pyri Scheuten 6 assessed as mortality at 855 mg/l sprayed on leaf disks measured after 3 days", "conditions": "Scheuten 6, foliar, 72 h"}, "Typhlodromus pyri [7]": {"system": "Typhlodromus pyri", "assay": "Miticidal activity against compound treated Phaseolus vulgaris leaf-fed female Typhlodromus pyri Scheuten 13 assessed as mortality at 855 mg/l sprayed on leaf disks measured after 3 days", "conditions": "Scheuten 13, foliar, 72 h"}, "Typhlodromus pyri [8]": {"system": "Typhlodromus pyri", "assay": "Miticidal activity against compound treated Phaseolus vulgaris leaf-fed female Typhlodromus pyri Scheuten 10 assessed as mortality at 855 mg/l sprayed on leaf disks measured after 3 days", "conditions": "Scheuten 10, foliar, 72 h"}, "Typhlodromus pyri [9]": {"system": "Typhlodromus pyri", "assay": "Miticidal activity against compound treated Phaseolus vulgaris leaf-fed female Typhlodromus pyri Scheuten 11 assessed as mortality at 855 mg/l sprayed on leaf disks measured after 3 days", "conditions": "Scheuten 11, foliar, 72 h"}, "Typhlodromus pyri [10]": {"system": "Typhlodromus pyri", "assay": "Miticidal activity against compound treated Phaseolus vulgaris leaf-fed female Typhlodromus pyri Scheuten 2 assessed as mortality at 855 mg/l sprayed on leaf disks measured after 3 days", "conditions": "Scheuten 2, foliar, 72 h"}, "Typhlodromus pyri [11]": {"system": "Typhlodromus pyri", "assay": "Miticidal activity against compound treated Phaseolus vulgaris leaf-fed female Typhlodromus pyri Scheuten 4 assessed as mortality at 855 mg/l sprayed on leaf disks measured after 3 days", "conditions": "Scheuten 4, foliar, 72 h"}, "Typhlodromus pyri [12]": {"system": "Typhlodromus pyri", "assay": "Miticidal activity against compound treated Phaseolus vulgaris leaf-fed female Typhlodromus pyri Scheuten 5 assessed as mortality at 855 mg/l sprayed on leaf disks measured after 3 days", "conditions": "Scheuten 5, foliar, 72 h"}, "Typhlodromus pyri [13]": {"system": "Typhlodromus pyri", "assay": "Miticidal activity against compound treated Phaseolus vulgaris leaf-fed female Typhlodromus pyri Scheuten 7 assessed as mortality at 855 mg/l sprayed on leaf disks measured after 3 days", "conditions": "Scheuten 7, foliar, 72 h"}, "Typhlodromus pyri [14]": {"system": "Typhlodromus pyri", "assay": "Miticidal activity against compound treated Phaseolus vulgaris leaf-fed female Typhlodromus pyri Scheuten 3 assessed as mortality at 17.5 mg/l sprayed on leaf disks measured after 3 days", "conditions": "Scheuten 3, foliar, 72 h"}, "Typhlodromus pyri [15]": {"system": "Typhlodromus pyri", "assay": "Miticidal activity against compound treated Phaseolus vulgaris leaf-fed female Typhlodromus pyri Scheuten 13 assessed as mortality at 17.5 mg/l sprayed on leaf disks measured after 3 days", "conditions": "Scheuten 13, foliar, 72 h"}, "Typhlodromus pyri [16]": {"system": "Typhlodromus pyri", "assay": "Miticidal activity against compound treated Phaseolus vulgaris leaf-fed female Typhlodromus pyri Scheuten 1 assessed as mortality at 17.5 mg/l sprayed on leaf disks measured after 3 days", "conditions": "Scheuten 1, foliar, 72 h"}, "Typhlodromus pyri [17]": {"system": "Typhlodromus pyri", "assay": "Miticidal activity against compound treated Phaseolus vulgaris leaf-fed female Typhlodromus pyri Scheuten 6 assessed as mortality at 17.5 mg/l sprayed on leaf disks measured after 3 days", "conditions": "Scheuten 6, foliar, 72 h"}, "Typhlodromus pyri [18]": {"system": "Typhlodromus pyri", "assay": "Miticidal activity against compound treated Phaseolus vulgaris leaf-fed female Typhlodromus pyri Scheuten 9 assessed as mortality at 17.5 mg/l sprayed on leaf disks measured after 3 days", "conditions": "Scheuten 9, foliar, 72 h"}, "Typhlodromus pyri [19]": {"system": "Typhlodromus pyri", "assay": "Miticidal activity against compound treated Phaseolus vulgaris leaf-fed female Typhlodromus pyri Scheuten 2 assessed as mortality at 17.5 mg/l sprayed on leaf disks measured after 3 days", "conditions": "Scheuten 2, foliar, 72 h"}, "Typhlodromus pyri [20]": {"system": "Typhlodromus pyri", "assay": "Miticidal activity against compound treated Phaseolus vulgaris leaf-fed female Typhlodromus pyri Scheuten 10 assessed as mortality at 17.5 mg/l sprayed on leaf disks measured after 3 days", "conditions": "Scheuten 10, foliar, 72 h"}, "Typhlodromus pyri [21]": {"system": "Typhlodromus pyri", "assay": "Miticidal activity against compound treated Phaseolus vulgaris leaf-fed female Typhlodromus pyri Scheuten 5 assessed as mortality at 17.5 mg/l sprayed on leaf disks measured after 3 days", "conditions": "Scheuten 5, foliar, 72 h"}, "Typhlodromus pyri [22]": {"system": "Typhlodromus pyri", "assay": "Miticidal activity against compound treated Phaseolus vulgaris leaf-fed female Typhlodromus pyri Scheuten 11 assessed as mortality at 17.5 mg/l sprayed on leaf disks measured after 3 days", "conditions": "Scheuten 11, foliar, 72 h"}, "Typhlodromus pyri [23]": {"system": "Typhlodromus pyri", "assay": "Miticidal activity against compound treated Phaseolus vulgaris leaf-fed female Typhlodromus pyri Scheuten 8 assessed as mortality at 17.5 mg/l sprayed on leaf disks measured after 3 days", "conditions": "Scheuten 8, foliar, 72 h"}, "Typhlodromus pyri [24]": {"system": "Typhlodromus pyri", "assay": "Miticidal activity against compound treated Phaseolus vulgaris leaf-fed female Typhlodromus pyri Scheuten 4 assessed as mortality at 17.5 mg/l sprayed on leaf disks measured after 3 days", "conditions": "Scheuten 4, foliar, 72 h"}, "Typhlodromus pyri [25]": {"system": "Typhlodromus pyri", "assay": "Miticidal activity against compound treated Phaseolus vulgaris leaf-fed female Typhlodromus pyri Scheuten 7 assessed as mortality at 17.5 mg/l sprayed on leaf disks measured after 3 days", "conditions": "Scheuten 7, foliar, 72 h"}, "Typhlodromus pyri [26]": {"system": "Typhlodromus pyri", "assay": "Miticidal activity against compound treated Phaseolus vulgaris leaf-fed female Typhlodromus pyri Scheuten 12 assessed as mortality at 17.5 mg/l sprayed on leaf disks measured after 3 days", "conditions": "Scheuten 12, foliar, 72 h"}},
  "data": [
    {"smiles": "CCOP(=S)(OCC)Oc1nc(Cl)c(Cl)cc1Cl", "note": "[CHLORPYRIFOS]", "values": [
      {"measurement": "mortality at 855 µg/mL", "setting": "Typhlodromus pyri [1]", "value": 23.6, "unit": "%"},
      {"measurement": "mortality at 855 µg/mL", "setting": "Typhlodromus pyri [2]", "value": 7.9, "unit": "%"},
      {"measurement": "mortality at 855 µg/mL", "setting": "Typhlodromus pyri [3]", "value": 41.1, "unit": "%"},
      {"measurement": "mortality at 855 µg/mL", "setting": "Typhlodromus pyri [4]", "value": 25.9, "unit": "%"},
      {"measurement": "mortality at 855 µg/mL", "setting": "Typhlodromus pyri [5]", "value": 74, "unit": "%"},
      {"measurement": "mortality at 855 µg/mL", "setting": "Typhlodromus pyri [6]", "value": 7.6, "unit": "%"},
      {"measurement": "mortality at 855 µg/mL", "setting": "Typhlodromus pyri [7]", "value": 32.5, "unit": "%"},
      {"measurement": "mortality at 855 µg/mL", "setting": "Typhlodromus pyri [8]", "value": 55.5, "unit": "%"},
      {"measurement": "mortality at 855 µg/mL", "setting": "Typhlodromus pyri [9]", "value": 10.4, "unit": "%"},
      {"measurement": "mortality at 855 µg/mL", "setting": "Typhlodromus pyri [10]", "value": 33.3, "unit": "%"},
      {"measurement": "mortality at 855 µg/mL", "setting": "Typhlodromus pyri [11]", "value": 56.2, "unit": "%"},
      {"measurement": "mortality at 855 µg/mL", "setting": "Typhlodromus pyri [12]", "value": 8.3, "unit": "%"},
      {"measurement": "mortality at 855 µg/mL", "setting": "Typhlodromus pyri [13]", "value": 40.9, "unit": "%"}
    ]},
    {"smiles": "CC1(C)[C@H](C(=O)O[C@H](C#N)c2cccc(Oc3ccccc3)c2)[C@@H]1C=C(Br)Br", "note": "[DELTAMETHRIN]", "values": [
      {"measurement": "mortality at 17.5 µg/mL", "setting": "Typhlodromus pyri [14]", "value": 61.8, "unit": "%"},
      {"measurement": "mortality at 17.5 µg/mL", "setting": "Typhlodromus pyri [15]", "value": 75, "unit": "%"},
      {"measurement": "mortality at 17.5 µg/mL", "setting": "Typhlodromus pyri [16]", "value": 90.2, "unit": "%"},
      {"measurement": "mortality at 17.5 µg/mL", "setting": "Typhlodromus pyri [17]", "value": 5.3, "unit": "%"},
      {"measurement": "mortality at 17.5 µg/mL", "setting": "Typhlodromus pyri [18]", "value": 74, "unit": "%"},
      {"measurement": "mortality at 17.5 µg/mL", "setting": "Typhlodromus pyri [19]", "value": 92, "unit": "%"},
      {"measurement": "mortality at 17.5 µg/mL", "setting": "Typhlodromus pyri [20]", "value": 100, "unit": "%"},
      {"measurement": "mortality at 17.5 µg/mL", "setting": "Typhlodromus pyri [21]", "value": 86.1, "unit": "%"},
      {"measurement": "mortality at 17.5 µg/mL", "setting": "Typhlodromus pyri [22]", "value": 62.9, "unit": "%"},
      {"measurement": "mortality at 17.5 µg/mL", "setting": "Typhlodromus pyri [23]", "value": 31.2, "unit": "%"},
      {"measurement": "mortality at 17.5 µg/mL", "setting": "Typhlodromus pyri [24]", "value": 84.3, "unit": "%"},
      {"measurement": "mortality at 17.5 µg/mL", "setting": "Typhlodromus pyri [25]", "value": 23.6, "unit": "%"},
      {"measurement": "mortality at 17.5 µg/mL", "setting": "Typhlodromus pyri [26]", "value": 20.6, "unit": "%"}
    ]}
  ]
}
